#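 Following 48 hours of exposure in 96-well plates, responses at five concentrations were used to interpolate endpoints linearly. Here, GI50 denotes the concentration required for 50% inhibition of growth. The concentration for full growth arrest is given as TGI.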
# What was measured:
# Test in all cases: NCI tumour cell line growth inhibition, 48 h
# [1] = tested on: HL-60(TB) leukemia
# [2] = tested on: A549 NSCLC
# [3] = tested on: OVCAR-8 ovarian
# [4] = tested on: M14 melanoma
# [5] = tested on: SK-MEL-28 melanoma
# [6] = tested on: SN12C renal
# [7] = tested on: IGROV1 ovarian
# [8] = tested on: A498 renal
# [9] = tested on: SK-MEL-2 melanoma
# [10] = tested on: UACC-62 melanoma
# [11] = tested on: SF-295 CNS
# [12] = tested on: HT29 colon
# [13] = tested on: HOP-62 NSCLC
# [14] = tested on: NCI-H522 lung
# [15] = tested on: SF-539 CNS
# [16] = tested on: SNB-75 CNS
# [17] = tested on: SNB-19 CNS
# [18] = tested on: KM12 colon
# [19] = tested on: OVCAR-5 ovarian
# [20] = tested on: BT-549 breast
# [21] = tested on: SR leukemia
# [22] = tested on: K-562 leukemia
# [23] = tested on: DU-145 prostate
# [24] = tested on: HCT-15 colon
# [25] = tested on: OVCAR-4 ovarian
# [26] = tested on: UACC-257 melanoma
# [27] = tested on: HCC-2998 colon
# [28] = tested on: MDA-MB-435
# [29] = tested on: CCRF-CEM leukemia
# [30] = tested on: SW-620 colon
# [31] = tested on: NCI/ADR-RES ovarian
# [32] = tested on: T-47D breast
# [33] = tested on: HCT-116 colon
# [34] = tested on: LOX IMVI melanoma
# [35] = tested on: SK-MEL-5 melanoma
# [36] = tested on: SK-OV-3 ovarian
# [37] = tested on: NCI-H226 lung
# [38] = tested on: TK-10 renal
# [39] = tested on: HOP-92 NSCLC
# [40] = tested on: OVCAR-3 ovarian
# [41] = tested on: HS 578T breast
# [42] = tested on: ACHN renal
# [43] = tested on: U251 CNS
# [44] = tested on: MCF7 breast
# [45] = tested on: UO-31 renal
# [46] = tested on: SF-268 CNS
# [47] = tested on: NCI-H460 lung
# [48] = tested on: RXF 393 renal
# [49] = tested on: 786-0 renal
# [50] = tested on: CAKI-1 renal
# [51] = tested on: MALME-3M melanoma
# [52] = tested on: MDA-MB-231 breast
# [53] = tested on: EKVX NSCLC
# [54] = tested on: PC-3 prostate
# [55] = tested on: RPMI-8226 leukemia
# [56] = tested on: MOLT-4 leukemia
# [57] = tested on: COLO 205 colon
# [58] = tested on: NCI-H23 lung
smiles,measurement,setting,value
CS(=O)(=O)c1nccc(-c2c(-c3ccc(F)c(OCCc4ccc(F)cc4)c3)nc3sccn23)n1,GI50,[1],3.23 µM
same,TGI,[1],9.31 µM
same,GI50,[2],16.1 µM
same,TGI,[2],30.5 µM
same,GI50,[3],15.5 µM
same,TGI,[3],33.2 µM
same,GI50,[4],16.6 µM
same,TGI,[4],30.9 µM
same,GI50,[5],11.9 µM
same,TGI,[5],24.5 µM
same,GI50,[6],13.8 µM
same,TGI,[6],30.6 µM
same,GI50,[7],5.9 µM
same,TGI,[7],24.6 µM
same,GI50,[8],9.97 µM
same,TGI,[8],21.5 µM
same,GI50,[9],15.7 µM
same,TGI,[9],30.7 µM
same,GI50,[10],15.4 µM
same,TGI,[10],35.5 µM
same,GI50,[11],17 µM
same,TGI,[11],31.6 µM
same,GI50,[12],15.2 µM
same,TGI,[12],30.6 µM
same,GI50,[13],15.3 µM
same,TGI,[13],31.2 µM
same,GI50,[14],11.7 µM
same,TGI,[14],28.1 µM
same,GI50,[15],15.5 µM
same,TGI,[15],30 µM
same,GI50,[16],11.4 µM
same,TGI,[16],23.6 µM
same,GI50,[17],15.2 µM
same,TGI,[17],33.9 µM
same,GI50,[18],13 µM
same,TGI,[18],28.5 µM
same,GI50,[19],15.5 µM
same,TGI,[19],30.4 µM
same,GI50,[20],14 µM
same,TGI,[20],27.6 µM
same,GI50,[21],12.3 µM
same,TGI,[21],36.9 µM
same,GI50,[22],15 µM
same,TGI,[22],53.8 µM
same,GI50,[23],2.07 µM
same,TGI,[23],4.32 µM
same,GI50,[24],12.5 µM
same,TGI,[24],27.8 µM
same,GI50,[25],14.9 µM
same,TGI,[25],30.4 µM
same,GI50,[26],12.3 µM
same,TGI,[26],25.4 µM
same,GI50,[27],3.48 µM
same,TGI,[27],11.3 µM
same,GI50,[28],15.9 µM
same,TGI,[28],29.3 µM
same,GI50,[29],14.2 µM
same,TGI,[29],33.2 µM
same,GI50,[30],15.2 µM
same,TGI,[30],30.6 µM
same,GI50,[31],17.4 µM
same,TGI,[31],39 µM
same,GI50,[32],2.7 µM
same,TGI,[32],7.57 µM
same,GI50,[33],12.9 µM
same,TGI,[33],25.5 µM
same,GI50,[34],13 µM
same,TGI,[34],27.6 µM
same,GI50,[35],16.5 µM
same,TGI,[35],30.8 µM
same,GI50,[36],13.5 µM
same,TGI,[36],26.5 µM
same,GI50,[37],14.5 µM
same,TGI,[37],35 µM
same,GI50,[38],15.1 µM
same,TGI,[38],28.3 µM
same,GI50,[39],4.7 µM
same,TGI,[39],18.8 µM
same,GI50,[40],7.11 µM
same,TGI,[40],20.8 µM
same,GI50,[41],12.5 µM
same,TGI,[41],43.8 µM
same,GI50,[42],2.74 µM
same,TGI,[42],7.33 µM
same,GI50,[43],15.9 µM
same,TGI,[43],29.7 µM
same,GI50,[44],1.85 µM
same,TGI,[44],4.31 µM
same,GI50,[45],10.2 µM
same,TGI,[45],21.8 µM
same,GI50,[46],16.4 µM
same,TGI,[46],36.9 µM
same,GI50,[47],4.25 µM
same,TGI,[47],16.3 µM
same,GI50,[48],15 µM
same,TGI,[48],29.2 µM
same,GI50,[49],14.9 µM
same,TGI,[49],30 µM
same,GI50,[50],13.5 µM
same,TGI,[50],26.4 µM
same,GI50,[51],17.2 µM
same,TGI,[51],31.7 µM
same,GI50,[52],17 µM
same,TGI,[52],37.8 µM
same,GI50,[53],12.7 µM
same,TGI,[53],25.4 µM
same,GI50,[54],10.9 µM
same,TGI,[54],27.2 µM
same,GI50,[55],4.34 µM
same,TGI,[55],28.1 µM
same,GI50,[56],14.3 µM
same,TGI,[56],34.5 µM
same,GI50,[57],17.1 µM
same,TGI,[57],32.5 µM
COc1ccc([C@H]2C(=O)N(c3cc(OC)c(OC)c(OC)c3)[C@@H]2c2ccc(OC)c(O)c2)cc1,GI50,[1],0.0216 µM
same,TGI,[1],0.0527 µM
same,GI50,[2],0.0401 µM
same,TGI,[2],> 100 µM
same,GI50,[3],0.0299 µM
same,TGI,[3],> 100 µM
same,GI50,[4],0.0341 µM
same,TGI,[4],17.5 µM
same,GI50,[5],4.03 µM
same,TGI,[5],> 100 µM
same,GI50,[6],0.0435 µM
same,TGI,[6],> 100 µM
same,GI50,[7],0.0424 µM
same,TGI,[7],> 100 µM
same,GI50,[8],33.6 µM
same,TGI,[8],> 100 µM
same,GI50,[9],0.0502 µM
same,TGI,[9],> 100 µM
same,GI50,[58],0.0378 µM
same,TGI,[58],72.2 µM
same,GI50,[10],0.0448 µM
same,TGI,[10],26.7 µM
same,GI50,[11],0.0298 µM
same,TGI,[11],22.7 µM
same,GI50,[13],0.0562 µM
same,TGI,[13],> 100 µM
same,GI50,[14],0.0124 µM
same,TGI,[14],0.0491 µM
same,GI50,[15],0.0204 µM
same,TGI,[15],0.0537 µM
same,GI50,[16],0.861 µM
same,TGI,[16],> 100 µM
same,GI50,[17],0.0454 µM
same,TGI,[17],> 100 µM
same,GI50,[18],0.0445 µM
same,TGI,[18],> 100 µM
same,GI50,[19],0.0459 µM
same,TGI,[19],> 100 µM
same,GI50,[20],0.058 µM
same,TGI,[20],3.83 µM
same,GI50,[21],0.0258 µM
same,TGI,[21],> 100 µM
same,GI50,[22],0.0276 µM
same,TGI,[22],> 100 µM
same,GI50,[23],0.0527 µM
same,TGI,[23],> 100 µM
same,GI50,[24],0.0305 µM
same,TGI,[24],> 100 µM
same,GI50,[25],17.1 µM
same,TGI,[25],> 100 µM
same,GI50,[27],0.0361 µM
same,TGI,[27],15.5 µM
same,GI50,[28],0.0297 µM
same,TGI,[28],1.85 µM
same,GI50,[29],0.0308 µM
same,TGI,[29],> 100 µM
same,GI50,[30],0.0516 µM
same,TGI,[30],> 100 µM
same,GI50,[31],0.0195 µM
same,TGI,[31],0.0513 µM
same,GI50,[32],27.3 µM
same,TGI,[32],> 100 µM
same,GI50,[33],0.0292 µM
same,TGI,[33],> 100 µM
same,GI50,[34],0.0261 µM
same,TGI,[34],82.1 µM
same,GI50,[35],0.0202 µM
same,TGI,[35],0.0429 µM
same,GI50,[36],0.0422 µM
same,TGI,[36],> 100 µM
same,GI50,[37],0.0274 µM
same,TGI,[37],0.0898 µM
same,GI50,[38],16.2 µM
same,TGI,[38],> 100 µM
same,GI50,[39],1.19 µM
same,TGI,[39],78.3 µM
same,GI50,[40],0.0635 µM
same,TGI,[40],> 100 µM
same,GI50,[41],0.0422 µM
same,TGI,[41],> 100 µM
same,GI50,[42],0.0535 µM
same,TGI,[42],69.9 µM
same,GI50,[43],0.0322 µM
same,TGI,[43],> 100 µM
same,GI50,[44],0.0327 µM
same,TGI,[44],> 100 µM
same,GI50,[45],0.072 µM
same,TGI,[45],38.2 µM
same,GI50,[46],1.41 µM
same,TGI,[46],> 100 µM
same,GI50,[47],0.0365 µM
same,TGI,[47],24.8 µM
same,GI50,[48],0.0467 µM
same,TGI,[48],41.2 µM
same,GI50,[49],0.0324 µM
same,TGI,[49],> 100 µM
same,GI50,[50],0.049 µM
same,TGI,[50],> 100 µM
same,GI50,[51],0.0357 µM
same,TGI,[51],34.5 µM
same,GI50,[52],0.0318 µM
same,TGI,[52],> 100 µM
same,GI50,[53],0.0401 µM
same,TGI,[53],> 100 µM
same,GI50,[54],0.05 µM
same,TGI,[54],> 100 µM
same,GI50,[55],0.0387 µM
same,TGI,[55],17.3 µM
same,GI50,[56],0.0464 µM
same,TGI,[56],> 100 µM
same,GI50,[57],0.0303 µM
same,TGI,[57],0.083 µM

# — PubChem BioAssay (NCI)
